Patent publication US20100292279A1, “Bis-(Sulfonylamino) Derivatives in Therapy” (ASTRAZENECA AB, priority 2009, published 2010)

Target: T1, human mPGES-1 (Homo sapiens, UniProt O14684)
T1 construct: host or cells: microsomes
T1 sequence (O14684 1-152): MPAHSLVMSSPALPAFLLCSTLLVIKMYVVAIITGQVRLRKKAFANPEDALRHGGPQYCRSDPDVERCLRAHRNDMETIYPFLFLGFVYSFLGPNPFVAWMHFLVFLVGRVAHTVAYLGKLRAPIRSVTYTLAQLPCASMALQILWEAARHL
Test: Microsomal prostaglandin E synthase biochemical assay
Conditions: microsome preparation containing human mPGES-1; substrate PGH2 10.8 μM, GSH 2.5 mM, pH 6.8; PGE2 by HTRF; average of at least n=2
Experimental: Compounds were tested as inhibitors of microsomal prostaglandin E synthase activity in microsomal prostaglandin E synthase assays and whole cell assays. These assays measure prostaglandin E2 (PGE2) synthesis which is taken as a measure of prostaglandin E synthase activity. Microsomal prostaglandin E synthase biochemical assays used microsomal prostaglandin E synthase-1 in microsomal preparations. The source of the microsomes can be for example interleukin-1β-stimulated human A549 cells (which express human mPGES-1) or Sf9 cells transfected with plasmids encoding human mPGES-1 cDNA.
A solution of test compound was added to a diluted microsome preparation containing is human mPGES-1 and pre-incubated for 15 minutes in potassium phosphate buffer pH 6.8 with cofactor glutathione (GSH). Corresponding solutions without test compound were used as positive controls, and corresponding solutions without test compound and without microsomes were used as negative controls. The enzymatic reaction was then started by addition of the substrate PGH2 in an organic solution (dry acetonitrile).
The reaction was stopped after one minute by adding an acidic solution (pH 1.9) of ferric chloride and citrate (final concentrations 7 mM and 47 mM respectively), by which the PGH2 was sequestered (the PGH2 is reduced to mainly 12-hydroxy heptadecatrineoic acid (12-HHT) which is not detected by the subsequent PGE2 detection step). The resulting solution was then pH neutralized by addition of potassium phosphate buffer, prior to diluting an aliquot of the resulting solution in a weak potassium phosphate buffer (50 mM, pH 6.8) containing 0.2% BSA (w/v). […] The PGE2 formed was quantified by use of a commercial HTRF based kit (catalogue #62PG2PEC or #62P2APEC from Cisbio International). 100% activity was defined as the PGE2 production in positive controls subtracted by the PGE2 production in the negative controls. IC50 values were then determined using standard procedures.

IC50 [nM]	Compound
6.3	COc1cc(C(=O)NS(=O)(=O)c2ccccc2S(N)(=O)=O)ccc1C#Cc1ccc(C)cc1 [Example 17, 3-Methoxy-N-(2-sulfamoylphenylsulfonyl)-4-(p-tolylethynyl)benzamide]
43	CC(C)C#Cc1ccc(C(=O)NS(=O)(=O)c2ccccc2S(N)(=O)=O)cc1OCCCF [Example 72, 3-(3-Fluoropropoxy)-4-(3-methylbut-1-ynyl)-N-(2-sulfamoylphenylsulfonyl)benzamide]
25	CC(C)(C)C#Cc1ccc(C(=O)NS(=O)(=O)c2ccccc2S(N)(=O)=O)cc1OCC(F)F [Example 6, 3-(2,2-Difluoroethoxy)-4-(3,3-dimethylbut-1-ynyl)-N-(2-sulfamoylphenylsulfonyl)benzamide]
9.1	NS(=O)(=O)c1ccccc1S(=O)(=O)NC(=O)c1ccc(-c2cc3ccccc3o2)c(OCCOCC(F)(F)F)c1 [Example 62, 4-(Benzofuran-2-yl)-N-(2-sulfamoylphenylsulfonyl)-3-(2-(2,2,2-trifluoroethoxy)ethoxy)benzamide]
37	NS(=O)(=O)c1ccccc1S(=O)(=O)NC(=O)c1ccc(C#CCCCCCl)cc1 [Example 42, 4-(6-Chlorohex-1-ynyl)-N-(2-sulfamoylphenylsulfonyl)benzamide]
3.7	NS(=O)(=O)c1ccccc1S(=O)(=O)NC(=O)c1ccc(C#Cc2ccc(Cl)cc2)cc1 [Example 10, 4-((4-Chlorophenyl)ethynyl)-N-(2-sulfamoylphenylsulfonyl)benzamide]
8.5	NS(=O)(=O)c1ccccc1S(=O)(=O)NC(=O)c1ccc(-c2cc3ccccc3o2)c(F)c1 [Example 57, 4-(Benzofuran-2-yl)-3-fluoro-N-(2-sulfamoylphenylsulfonyl)benzamide]
2200	COc1ccc(S(=O)(=O)NC(=O)c2ccc(C#CC(C)(C)C)cc2)c(S(N)(=O)=O)c1 [Example 78, 4-methoxy-benzene-1,2-disulfonic acid 2-amide 1-[4-(3,3-dimethyl-but-1-ynyl)-benzoylamide]]
28	CC(C)C#Cc1ccc(C(=O)NS(=O)(=O)c2ccccc2S(N)(=O)=O)cc1OC(F)(F)F [Example 54, 4-(3-Methylbut-1-ynyl)-N-(2-sulfamoylphenylsulfonyl)-3-(trifluoromethoxy)benzamide]

Compound	IC50 [nM]
CC(C)C#Cc1ccc(C(=O)NS(=O)(=O)c2ccccc2S(N)(=O)=O)cc1OCC(C)C [Example 28, 3-Isobutoxy-4-(3-methylbut-1-ynyl)-N-(2-sulfamoylphenylsulfonyl)benzamide]	20
